Experimental data: US9776979B2, “EBI2 modulators” (Sanford-Burnham Medical Research Institute, priority 2013, dated 2017)

Target: EBI2 (Homo sapiens, UniProt P32249)
Assay: Cell-based luminescent assay (EBI2 modulation)
Conditions: cell-based luminescence; 7a,25-OHC final assay concentration 80 nM; 60 minutes incubation; read-out: IC50
Procedure: Cell-Based Luminescent Assay
To assess EBI2 modulation, the compounds described herein were assayed in the following cell-based luminescent assay:
1) Plated 600 cells/well in 4 uL of assay media into columns 1-48 of a 1536-well assay plate, using a liquid dispenser.
2) Centrifuged plates at 1000 rpm for 1 minute and covered with lids.
3) Incubated overnight at 37° C., 100% relative humidity, 5% CO2.
1) Centrifuged compound plates containing compounds described herein at 500 rpm for 1 minute.
2) Added compounds into assay plate col 5-48 to final concentration 4-5 uM. Added matching amount of DMSO to positive and negative control wells in columns 1-4.
3) Dispensed 2 ul/well of assay media to columns 1-2 for the positive control wells.
4) Added 2 ul/well of 400 nM 7a,25-OHC (final assay concentration=80 nM) in assay media to columns 3-48 for the negative control and test compound wells.
5) Centrifuged plates at 1000 rpm for 1 minute and re-lid plates.
6) Incubated plates at 37° C., 100% relative humidity, 5% CO2 for 60 minutes.
7) Following 60 minute incubation, delivered 2.5 uL of Detection Reagent solution to each assay plate (Columns 1-48) using a liquid handler.
8) Centrifuged plates at 2000 rpm for 2 minutes and re-lid plates.
9) Incubated plates for 60 minutes at 25 degrees in the dark.
10) Read plates using the Viewlux, Envision or other suitable plate reader using a luminescence detection.
The experimental values were normalized by the difference between values from neutral and stimulator control wells in each plate. Then normalized data was corrected to remove systematic plate patterns due to artifacts such as dispensing tip issues etc.

Sequence of EBI2 (P32249 whole entry): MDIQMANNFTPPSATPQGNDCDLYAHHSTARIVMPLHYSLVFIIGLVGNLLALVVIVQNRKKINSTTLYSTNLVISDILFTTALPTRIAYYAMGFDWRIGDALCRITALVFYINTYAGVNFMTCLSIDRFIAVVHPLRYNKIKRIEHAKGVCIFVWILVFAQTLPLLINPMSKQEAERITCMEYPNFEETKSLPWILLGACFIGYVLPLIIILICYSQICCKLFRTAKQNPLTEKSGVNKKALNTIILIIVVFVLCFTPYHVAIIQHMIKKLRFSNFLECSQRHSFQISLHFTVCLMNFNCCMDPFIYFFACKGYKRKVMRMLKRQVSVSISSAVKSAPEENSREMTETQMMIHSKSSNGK

| Substance | IC50 [nM] |
| --- | --- |
| 1-(4-{[4-fluoro-2-(trifluoromethyl)phenyl]carbonyl}piperazinyl)-3-[4-(trifluoromethyl)phenyl]prop-2-yn-1-one [Compound C325] | < 100 |
| 1-(4-{[4-fluoro-2-(trifluoromethyl)phenyl]carbonyl}piperazinyl)-3-phenylprop-2-yn-1-one [Compound C321] | < 100 |
| 1-(4-{[4-fluoro-2-(trifluoromethyl)phenyl]methyl}piperazinyl)-3-(4-methylphenyl)prop-2-yn-1-one [Compound C459] | 100 to 500 |
| 1-(4-{[4-fluoro-2-(trifluoromethyl)phenyl]methyl}piperazinyl)-3-[4-(trifluoromethyl)phenyl]prop-2-yn-1-one [Compound C432] | 100 to 500 |
| 1-[4-(diphenylmethyl)piperazinyl]-3-(4-bromo-2-fluorophenyl)prop-2-yn-1-one [Compound C107] | < 100 |
| 1-[4-(diphenylmethyl)piperazinyl]-3-(4-bromophenyl)prop-2-yn-1-one [Compound C50] | < 100 |
| 1-[4-(diphenylmethyl)piperazinyl]-3-[2-(trifluoromethyl)phenyl]prop-2-yn-1-one [Compound C443] | 100 to 500 |
| 1-{4-[(4-bromophenyl)carbonyl]piperazinyl}-3-(4-chlorophenyl)prop-2-yn-1-one [Compound C19] | < 100 |
| 1-{4-[(4-bromophenyl)methyl]piperazinyl}-3-(4-chlorophenyl)prop-2-yn-1-one [Compound C383] | < 100 |
| 1-{4-[(4-fluorophenyl)carbonyl]piperazinyl}-3-[2-(trifluoromethyl)phenyl]prop-2-yn-1-one [Compound C393] | < 100 |
| 1-{4-[(4-fluorophenyl)methyl]piperazinyl}-3-[2-(trifluoromethyl)phenyl]prop-2-yn-1-one [Compound C438] | 100 to 500 |
| 1-{4-[(4-methoxyphenyl)carbonyl]piperazinyl}-3-[2-(trifluoromethyl)phenyl]prop-2-yn-1-one [Compound C373] | < 100 |
| 1-{4-[(4-methoxyphenyl)methyl]piperazinyl}-3-[4-(trifluoromethyl)phenyl]prop-2-yn-1-one [Compound C352] | < 100 |
| 3-(2,3-dichlorophenyl)-1-[4-(diphenylmethyl)piperazinyl]prop-2-yn-1-one [Compound C25] | < 100 |
| 3-(2,3-dichlorophenyl)-1-{4-[(4-chlorophenyl)carbonyl]piperazinyl}prop-2-yn-1-one [Compound C30] | < 100 |
| 3-(2,3-dichlorophenyl)-1-{4-[(4-chlorophenyl)methyl]piperazinyl}prop-2-yn-1-one [Compound C275] | < 100 |
| 3-(2,4-difluorophenyl)-1-{4-[(4-fluorophenyl)carbonyl]piperazinyl}prop-2-yn-1-one [Compound C424] | 100 to 500 |
| 3-(3,4-dichlorophenyl)-1-[4-(diphenylmethyl)piperazinyl]prop-2-yn-1-one [Compound C77] | < 100 |
| 3-(3,4-dichlorophenyl)-1-{4-[(4-chlorophenyl)carbonyl]piperazinyl}prop-2-yn-1-one [Compound C51] | < 100 |

| Substance | IC50 [nM] |
| --- | --- |
| 3-(3,4-dichlorophenyl)-1-{4-[(4-chlorophenyl)methyl]piperazinyl}prop-2-yn-1-one [Compound C291] | 100 to 500 |
| 3-(3,4-dichlorophenyl)-1-{4-[(4-fluorophenyl)carbonyl]piperazinyl}prop-2-yn-1-one [Compound C93] | < 100 |
| 3-(3,5-difluorophenyl)-1-(4-{[4-(trifluoromethyl)phenyl]carbonyl}piperazinyl)prop-2-yn-1-one [Compound C398] | 100 to 500 |
| 3-(3,5-difluorophenyl)-1-(4-{[4-fluoro-2-(trifluoromethyl)phenyl]methyl}piperazinyl)prop-2-yn-1-one [Compound C422] | 100 to 500 |
| 3-(3,5-difluorophenyl)-1-[4-(diphenylmethyl)piperazinyl]prop-2-yn-1-one [Compound C419] | 100 to 500 |
| 3-(3,5-difluorophenyl)-1-{4-[(4-fluorophenyl)carbonyl]piperazinyl}prop-2-yn-1-one [Compound C410] | 100 to 500 |
| 3-(3,5-difluorophenyl)-1-{4-[(4-methoxyphenyl)carbonyl]piperazinyl}prop-2-yn-1-one [Compound C467] | 100 to 500 |
| 3-(4-bromophenyl)-1-{4-[(4-bromophenyl)methyl]piperazinyl}prop-2-yn-1-one [Compound C364] | < 100 |
| 3-(4-bromophenyl)-1-{4-[(4-chlorophenyl)carbonyl]piperazinyl}prop-2-yn-1-one [Compound C55] | < 100 |
| 3-(4-bromophenyl)-1-{4-[(4-chlorophenyl)methyl]piperazinyl}prop-2-yn-1-one [Compound C342] | < 100 |
| 3-(4-fluorophenyl)-1-{4-[(4-fluorophenyl)methyl]piperazinyl}prop-2-yn-1-one [Compound C446] | 100 to 500 |
| 3-(4-methylphenyl)-1-(4-{[4-(trifluoromethyl)phenyl]methyl}piperazinyl)prop-2-yn-1-one [Compound C346] | < 100 |
| 3-[4-(trifluoromethyl)phenyl]-1-(4-{[4-(trifluoromethyl)phenyl]methyl}piperazinyl)prop-2-yn-1-one [Compound C411] | 100 to 500 |
| 4,6-dichloroindol-2-yl 4-(diphenylmethyl)piperazinyl ketone [Compound C250] | < 100 |
| 4-(diphenylmethyl)piperazinyl 1-methylindol-5-yl ketone [Compound C433] | 100 to 500 |
| 4-(diphenylmethyl)piperazinyl 2-naphthyl ketone [Compound C101] | < 100 |
| 4-(diphenylmethyl)piperazinyl 5-bromobenzo[b]thiophen-2-yl ketone [Compound C207] | < 100 |
| 4-(diphenylmethyl)piperazinyl 5-bromoindol-2-yl ketone [Compound C43] | < 100 |
| 4-(diphenylmethyl)piperazinyl 5-chlorobenzo[b]thiophen-2-yl ketone [Compound C36] | < 100 |

| Substance | IC50 [nM] |
| --- | --- |
| 4-(diphenylmethyl)piperazinyl 5-hydroxyindol-2-yl ketone [Compound C348] | < 100 |
| 4-(diphenylmethyl)piperazinyl 6-bromoindol-2-yl ketone [Compound C108] | < 100 |
| 4-(diphenylmethyl)piperazinyl 6-fluoro(3-quinolyl) ketone [Compound C227] | < 100 |
| 4-(diphenylmethyl)piperazinyl 8-fluoro(3-quinolyl) ketone [Compound C386] | < 100 |
| 4-(diphenylmethyl)piperazinyl indol-6-yl ketone [Compound C370] | < 100 |
| 4-(diphenylmethyl)piperazinyl pyrrolo[2,3-c]pyridin-2-yl ketone [Compound C431] | 100 to 500 |
| 4-[(2,4-difluorophenyl)methyl]piperazinyl 5-(trifluoromethyl)indol-2-yl ketone [Compound C412] | 100 to 500 |
| 4-[(3,5-dimethylphenyl)methyl]piperazinyl 5-methylindol-2-yl ketone [Compound C359] | 100 to 500 |
| 4-[(4-bromophenyl)sulfonyl]piperazinyl 5-chloroindol-2-yl ketone [Compound C333] | < 100 |
| 4-[(4-bromophenyl)sulfonyl]piperazinyl 5-methylindol-2-yl ketone [Compound C143] | < 100 |
| 4-[(4-chlorophenyl)carbonyl]piperazinyl 5-(trifluoromethyl)indol-2-yl ketone [Compound C64] | < 100 |
| 4-[(4-chlorophenyl)methyl]piperazinyl 2-(trifluoromethyl)benzimidazol-5-yl ketone [Compound C170] | 500 to 5000 |
| 4-bromophenyl 4-{[4-(methylethyl)phenyl]methyl}piperazinyl ketone [Compound C176] | 500 to 5000 |
| 4-{3-[4-(diphenylmethyl)piperazinyl]-3-oxoprop-1-ynyl}benzenecarbonitrile [Compound C326] | < 100 |
| 4-{[2-fluoro-4-(trifluoromethyl)phenyl]carbonyl}piperazinyl 5-(trifluoromethyl)indol-2-yl ketone [Compound C360] | < 100 |
| 4-{[3,5-bis(trifluoromethyl)phenyl]carbonyl}piperazinyl 5-(trifluoromethyl)indol-2-yl ketone [Compound C330] | < 100 |
| 4-{[3-fluoro-4-(trifluoromethyl)phenyl]methyl}piperazinyl 5-(trifluoromethyl)indol-2-yl ketone [Compound C389] | < 100 |
| 4-{[4-((2E)-3-phenylprop-2-enoyl)piperazinyl]methyl}benzenecarbonitrile [Compound C335] | < 100 |
